Data set [1] deals with FET3, SOD1, SOD2, COX9 transcripts. In words: Yeast transcript analysis by RT-qPCR. The data set is classed as cell-based, Saccharomyces cerevisiae. The following applies: 10 μg/ml tacrolimus, cultures aged 3 days, normalised to U4 snRNA. Here is the method:
A pre-culture was diluted 1/100 into synthetic complete medium and tacrolimus was added to a final concentration of 10 μg/ml. (An equivalent volume of DMSO was added to a parallel culture as a control.) The cultures were then allowed to age for 3 days, before RNA extraction and transcript analysis by reverse transcription-qPCR (RT-qPCR). (Transcript levels are normalised to that of the U4 snRNA.)
For orientation: In qPCR the cycle at which signal appears reflects the starting amount.

The test system of data set [2] is C. elegans expressing mutant human SOD-1 (127X) in the body wall muscle. In words: C. elegans lifespan assay, mutant SOD-1 strain. The data set is classed as in vivo, Caenorhabditis elegans. Here is the method: (§1) Tacrolimus was tested in a number of disease models using the nematode worm, Caenorhabditis elegans, in which aggregate-prone proteins associated with neurodegenerative diseases are expressed in certain cell types. The effect of tacrolimus was determined by measuring the lifespan of worms in the presence and absence of tacrolimus, using the following general methodology. All of the worms tested using these assays also contained, in addition to the transgene expressing the disease-related protein, a mutation in the bus-5 gene which confers drug-sensitivity.
C. elegans cultures were synchronised by incubating an asynchronous culture in basic sodium hypochlorite solution to kill everything but the bleach-resistant mature eggs. […] From this point on, each ageing population was inspected at regular intervals (e.g. daily) and viability assessed by counting the number of dead worms.
(§2) The cumulative number of dead worms for each population was used to generate a survival/viability plot to determine chronological lifespan (CLS). Survival was analysed using the Kaplan-Meier log-rank survival analysis method, using the Online Application for Survival (OASIS; see http://sbi.postech.ac.kr/oasis). […]
The effect of tacrolimus on C. elegans expressing wild-type or mutant human SOD-1 in the body wall muscle was determined. […]

In data set [3] the test system is C. elegans expressing YFP alone (Q0) in the body wall muscle. The data set is described as follows: C. elegans lifespan assay, YFP alone (Q0) strain. The data set is classed as in vivo, Caenorhabditis elegans. The following applies: p<0.05 vs. Q0 DMSO. The method, then: as §1
C. elegans cultures were synchronised by incubating an asynchronous culture in basic sodium hypochlorite solution to kill everything but the bleach-resistant mature eggs. The eggs were added on to agar plates and then allowed to hatch and develop in the presence of the test compound (or vehicle) and bacterial food source. […] From this point on, each ageing population was inspected at regular intervals (e.g. daily) and viability assessed by counting the number of dead worms.
as §2

For a further data set, the system named is TDP-43. The data set is described as follows: Motor neuron culture with Aβ1-42 insult: extranuclear TDP-43 accumulation. The data set is classed as cell-based, rat. The method, then: Primary motor neuron (MN) cultures generated from rat spinal cord were treated with 20 μM amyloid beta 1-42 peptide (Aβ1-42). […] This model was used to determine the effect of tacrolimus on TDP-43 toxicity in motor neurons. […] After permeabilisation with 0.1% saponin, one group of cells was incubated for 2 hours with a) mouse monoclonal anti-microtubule-associated-protein 2 (MAP-2) antibody, and b) rabbit polyclonal anti-TDP-43 antibody. The anti-MAP-2 antibody was used to determine MN survival (number of stained MN) and MN neurite length. The anti-TDP-43 antibody was used to examine extranuclear TDP-43: the area of extranuclear TDP-43 staining per MN was calculated by normalising to the number of MAP-2 positive cells.

Another data set has as its system IL-6. In words: Microglial inflammatory cytokine production by qPCR (LPS challenge). The following applies: 100 ng/ml LPS overnight. The data set is classed as cell-based, rat. The method, then: To investigate the effect of tacrolimus on microglial function, rat microglia were isolated as follows. A primary glial co-culture was isolated from P2 Sprague Dawley rat pups. The cells were cultured until confluency and then the microglia were isolated from the confluent glial cells through mechanical shaking. The isolated microglial cells were then subjected to inflammatory challenge by overnight exposure to 100 ng/ml lipopolysaccharide (LPS), in the presence or absence of tacrolimus. Glial cell activity was monitored by determining cell viability (Cell Counting Kit-8), the presence of reactive oxygen species (by quantitative fluorescence measurement in the supernatant/cell lysate), microvesicle shedding (by monitoring vesicle formation in cells loaded with Calcein-AM and then challenged with 1 mM ATP) and inflammatory cytokine production (by qPCR).

The test system of another data set is TDP-43(Q331K) mice. The data set is described as follows: Rotarod testing of TDP-43(Q331K) transgenic mice. The data set is classed as in vivo, mouse. The following applies: tacrolimus 0.25, 1.25 and 2.5 mg/kg p.o. 6 days a week for 70 weeks vs. vehicle. A general note: Falling from the rotarod earlier than controls is read as motor impairment.
For the next data set, the system named is TNF-α. The data set is described as follows: Blood TNF-α levels in healthy human volunteers given tacrolimus capsule. The data set is classed as in vivo. Here is the method: (§3) A hard gelatine capsule was filled with the following composition:
(§4) One capsule as above containing 0.3 mg tacrolimus was administered daily to healthy human volunteers for three successive days. […] Similarly, no change in TNF-α levels occurred as a result of administering 0.6 mg daily of tacrolimus to healthy volunteers. The average trough level of tacrolimus (level after 24 hours of administration of each dose) observed was approximately 220 pg/ml.

A short description of data set [4]: Tacrolimus blood levels in healthy human volunteers given capsule. Conditions: oral. The data set is classed as in vivo. The method, then:
as §3, §4

Read-outs that look alike come from different tables or passages of the source.

In general, AUC refers to concentration integrated over time.

For the molecule `C=CC[C@@H]1/C=C(\C)C[C@H](C)C[C@H](OC)[C@H]2O[C@@](O)(C(=O)C(=O)N3CCCC[C@H]3C(=O)O[C@H](/C(C)=C/[C@@H]3CC[C@@H](O)[C@H](OC)C3)[C@H](C)[C@@H](O)CC1=O)[C@H](C)C[C@@H]2OC` [tacrolimus, Tacrolimus], the “expression of transcripts FET3, SOD1, SOD2 and COX9” value in data set [1] is “upregulated”. Also, the “increase in lifespan when bec-1 knocked down by RNAi” value in data set [2] (bec-1 RNAi, p>0.05 vs. bec-1 RNAi DMSO) is reported as “virtually abolished”. The lifespan entry in data set [2] (p<0.05 DMSO vs. Tacrolimus) is reported as “significant increase in lifespan”; in data set [3] it was “significantly increases lifespan”. The “increase of TDP-43:MN ratio in response to Aβ1-42 insult relative to unchallenged cells” value in the data set on TDP-43 (100 nM tacrolimus, 24 hours, control cells increased by 191%) came out at 35%. Besides, the “TDP-43 levels normalised to motor neuron number (TDP-43:MN ratio)” value in the data set with TDP-43 (all 3 concentrations, 24 hours after Aβ1-42 insult) is given as “significantly reduced TDP-43 levels”. In addition, the “LPS induction of IL-6 expression” value in the data set on IL-6 was “significantly reduced”. In addition, the “progression of motor decline (rotarod latency)” value with TDP-43(Q331K) mice is “delays the progression of motor decline”. In addition, the “blood TNF-α levels” value with TNF-α (0.3 mg capsule daily for three successive days) is “No significant changes”. The TNF-α levels entry in the data set on TNF-α (0.6 mg daily) was “no change”. Moreover, in data set [4] (0.3 mg capsule daily, three days), the average peak level result was “approximately 3700 pg/mL”. The concentration at 24 h in data set [4] (human, blood, two capsules, single dose of 0.6 mg, read-out: expected trough level) is ~0.44 ng/mL; in data set [4] (human, blood, 0.3 mg capsule daily, three days, read-out: average trough level (after 24 hours of administration of each dose)), ~0.22 ng/mL. The AUC in data set [4] (human, blood, 0.3 mg capsule daily, three days, read-out: average area under the curve AUC 0_t) was ~23.5 ng·h/mL.

For the origin of these results see patent US20180085356A1, “METHOD OF TREATING DISEASE CHARACTERISED BY PROTEIN AGGREGATE DEPOSITION IN NEURONAL CELLS” (CHRONOS THERAPEUTICS LIMITED, priority 2013, published 2018).
